# Experimental data as given in US8192962B2, “Processes for detecting toxic substances” (Daikin Industries, Ltd., priority 2001, dated 2012).
# Test system: Unknown protein yeast genes
# Test: DNA chip mRNA expression in yeast, unknown protein yeast genes (Table 1)
# Format: cell-based, Saccharomyces cerevisiae S288C
# Summary of the method: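 Untreated cultures served as reference for log-phase S288C yeast given a growth-inhibiting, non-lethal toxicant dose for 2 h at 25° C. in YPD. Gene expression was measured on a whole-genome DNA chip from Cy3/Cy5-labeled cDNA.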
compound,measurement,setting,value
"[Cl][Pb][Cl] [(4), PbCl2]",The level of expressed mRNA in the presence of chemical substance/The level of expressed mRNA in the absence of chemical substance,"yeast gene YAL053W, incubated two hours with chemical substance",2.1
same,The level of expressed mRNA in the presence of chemical substance/The level of expressed mRNA in the absence of chemical substance,yeast gene YBL048W,2.8
same,The level of expressed mRNA in the presence of chemical substance/The level of expressed mRNA in the absence of chemical substance,yeast gene YBL107C,1.5
same,The level of expressed mRNA in the presence of chemical substance/The level of expressed mRNA in the absence of chemical substance,"yeast gene YDL072C, incubated two hours with chemical substance",2.1
same,The level of expressed mRNA in the presence of chemical substance/The level of expressed mRNA in the absence of chemical substance,"yeast gene YDL204W, incubated two hours with chemical substance",3.4
same,The level of expressed mRNA in the presence of chemical substance/The level of expressed mRNA in the absence of chemical substance,"yeast gene YDL222C, incubated two hours with chemical substance",3.9
same,The level of expressed mRNA in the presence of chemical substance/The level of expressed mRNA in the absence of chemical substance,"yeast gene YDR330W, incubated two hours with chemical substance",0.8
same,The level of expressed mRNA in the presence of chemical substance/The level of expressed mRNA in the absence of chemical substance,"yeast gene YDR411C, incubated two hours with chemical substance",1.2
same,The level of expressed mRNA in the presence of chemical substance/The level of expressed mRNA in the absence of chemical substance,"yeast gene YDR511W, incubated two hours with chemical substance",2.3
same,The level of expressed mRNA in the presence of chemical substance/The level of expressed mRNA in the absence of chemical substance,"yeast gene YDR545W, incubated two hours with chemical substance",0.7
same,The level of expressed mRNA in the presence of chemical substance/The level of expressed mRNA in the absence of chemical substance,"yeast gene YEL001C, incubated two hours with chemical substance",0.7
same,The level of expressed mRNA in the presence of chemical substance/The level of expressed mRNA in the absence of chemical substance,"yeast gene YER004W, incubated two hours with chemical substance",1.4
same,The level of expressed mRNA in the presence of chemical substance/The level of expressed mRNA in the absence of chemical substance,"yeast gene YER035W, incubated two hours with chemical substance",1.9
same,The level of expressed mRNA in the presence of chemical substance/The level of expressed mRNA in the absence of chemical substance,"yeast gene YER079W, incubated two hours with chemical substance",2.0
same,The level of expressed mRNA in the presence of chemical substance/The level of expressed mRNA in the absence of chemical substance,"yeast gene YER106W, incubated two hours with chemical substance",1.2
same,The level of expressed mRNA in the presence of chemical substance/The level of expressed mRNA in the absence of chemical substance,"yeast gene YER158C, incubated two hours with chemical substance",3.1
same,The level of expressed mRNA in the presence of chemical substance/The level of expressed mRNA in the absence of chemical substance,"yeast gene YER163C, incubated two hours with chemical substance",1.6
same,The level of expressed mRNA in the presence of chemical substance/The level of expressed mRNA in the absence of chemical substance,"yeast gene YER175C, incubated two hours with chemical substance",2.2
same,The level of expressed mRNA in the presence of chemical substance/The level of expressed mRNA in the absence of chemical substance,"yeast gene YFL006W, incubated two hours with chemical substance",1.0
same,The level of expressed mRNA in the presence of chemical substance/The level of expressed mRNA in the absence of chemical substance,"yeast gene YFL010C, incubated two hours with chemical substance",1.0
same,The level of expressed mRNA in the presence of chemical substance/The level of expressed mRNA in the absence of chemical substance,yeast gene YFL024C,0.7
same,The level of expressed mRNA in the presence of chemical substance/The level of expressed mRNA in the absence of chemical substance,"yeast gene YFL032W, incubated two hours with chemical substance",0.8
same,The level of expressed mRNA in the presence of chemical substance/The level of expressed mRNA in the absence of chemical substance,"yeast gene YGL037C, incubated two hours with chemical substance",2.1
same,The level of expressed mRNA in the presence of chemical substance/The level of expressed mRNA in the absence of chemical substance,"yeast gene YGL047W, incubated two hours with chemical substance",2.3
same,The level of expressed mRNA in the presence of chemical substance/The level of expressed mRNA in the absence of chemical substance,"yeast gene YGL053W, incubated two hours with chemical substance",2.5
same,The level of expressed mRNA in the presence of chemical substance/The level of expressed mRNA in the absence of chemical substance,yeast gene YGL121C,4.2
same,The level of expressed mRNA in the presence of chemical substance/The level of expressed mRNA in the absence of chemical substance,"yeast gene YGL199C, incubated two hours with chemical substance",1.0
same,The level of expressed mRNA in the presence of chemical substance/The level of expressed mRNA in the absence of chemical substance,"yeast gene YGR101W, incubated two hours with chemical substance",1.1
same,The level of expressed mRNA in the presence of chemical substance/The level of expressed mRNA in the absence of chemical substance,yeast gene YGR110W,5.9
same,The level of expressed mRNA in the presence of chemical substance/The level of expressed mRNA in the absence of chemical substance,"yeast gene YGR130C, incubated two hours with chemical substance",1.6
same,The level of expressed mRNA in the presence of chemical substance/The level of expressed mRNA in the absence of chemical substance,"yeast gene YGR154C, incubated two hours with chemical substance",0.5
same,The level of expressed mRNA in the presence of chemical substance/The level of expressed mRNA in the absence of chemical substance,"yeast gene YGR221C, incubated two hours with chemical substance",1.4
same,The level of expressed mRNA in the presence of chemical substance/The level of expressed mRNA in the absence of chemical substance,"yeast gene YHR138C, incubated two hours with chemical substance",2.8
same,The level of expressed mRNA in the presence of chemical substance/The level of expressed mRNA in the absence of chemical substance,"yeast gene YHR199C, incubated two hours with chemical substance",2.0
same,The level of expressed mRNA in the presence of chemical substance/The level of expressed mRNA in the absence of chemical substance,"yeast gene YIL023C, incubated two hours with chemical substance",1.8
same,The level of expressed mRNA in the presence of chemical substance/The level of expressed mRNA in the absence of chemical substance,"yeast gene YIL041W, incubated two hours with chemical substance",1.3
same,The level of expressed mRNA in the presence of chemical substance/The level of expressed mRNA in the absence of chemical substance,"yeast gene YIL087C, incubated two hours with chemical substance",1.6
same,The level of expressed mRNA in the presence of chemical substance/The level of expressed mRNA in the absence of chemical substance,"yeast gene YJL057C, incubated two hours with chemical substance",1.7
same,The level of expressed mRNA in the presence of chemical substance/The level of expressed mRNA in the absence of chemical substance,"yeast gene YJL066C, incubated two hours with chemical substance",2.5
same,The level of expressed mRNA in the presence of chemical substance/The level of expressed mRNA in the absence of chemical substance,"yeast gene YJL082W, incubated two hours with chemical substance",1.1
same,The level of expressed mRNA in the presence of chemical substance/The level of expressed mRNA in the absence of chemical substance,"yeast gene YJL151C, incubated two hours with chemical substance",1.2
same,The level of expressed mRNA in the presence of chemical substance/The level of expressed mRNA in the absence of chemical substance,"yeast gene YJL152W, incubated two hours with chemical substance",1.3
same,The level of expressed mRNA in the presence of chemical substance/The level of expressed mRNA in the absence of chemical substance,"yeast gene YJL161W, incubated two hours with chemical substance",4.6
same,The level of expressed mRNA in the presence of chemical substance/The level of expressed mRNA in the absence of chemical substance,"yeast gene YJL171C, incubated two hours with chemical substance",1.4
same,The level of expressed mRNA in the presence of chemical substance/The level of expressed mRNA in the absence of chemical substance,"yeast gene YJR008W, incubated two hours with chemical substance",1.7
same,The level of expressed mRNA in the presence of chemical substance/The level of expressed mRNA in the absence of chemical substance,"yeast gene YJR054W, incubated two hours with chemical substance",0.9
same,The level of expressed mRNA in the presence of chemical substance/The level of expressed mRNA in the absence of chemical substance,yeast gene YKL071W,2.8
same,The level of expressed mRNA in the presence of chemical substance/The level of expressed mRNA in the absence of chemical substance,"yeast gene YKL086W, incubated two hours with chemical substance",2.6
same,The level of expressed mRNA in the presence of chemical substance/The level of expressed mRNA in the absence of chemical substance,"yeast gene YKL151C, incubated two hours with chemical substance",2.5
same,The level of expressed mRNA in the presence of chemical substance/The level of expressed mRNA in the absence of chemical substance,"yeast gene YKL153W, incubated two hours with chemical substance",0.7
